Test results from patent US20230113398A1, “INEXPENSIVE METAL-FREE ORGANIC REDOX FLOW BATTERY (ORBAT) FOR GRID-SCALE STORAGE” (UNIVERSITY OF SOUTHERN CALIFORNIA, priority 2013, published 2023).
In brackets after ≈: the same amount, converted by molar mass. Several values for one entry are separate records, joined by “and”; a condition that tells them apart may be missing. Identical values can stand only once. Like-named read-outs stand apart in the source and are kept apart here.

Tests used:
[1] = Rotating disk electrode and cyclic voltammetry on glassy carbon, 1 mM compound in 1 M sulfuric acid; format: physicochemical; details: for Diffusion Coefficient, (cm^2 s^-1): Levich plot; for Transfer Coefficient, an: Tafel analysis; for Exchange Current Density, (A cm^-2): glassy carbon RDE; for Rate Constant, k°: obtained from exchange current density
Procedure: Measurement of kinetic parameters and diffusion coefficients was conducted in a three-electrode cell consisting of a rotating glassy carbon disk working electrode, a platinum wire counter electrode, and a mercury/mercuric sulfate reference electrode (E° = +0.65 V). […] The solutions were de-aerated and kept under a blanket of argon gas throughout all the experiments. All measurements were conducted in the potentiodynamic mode (Versastat 300 potentiostat) at a scan rate of 5 mV s^-1 over a range of rotation rates (500 rpm to 3000 rpm). Impedance measurements were also made at each rotation rate. Cyclic voltammetry was conducted on a static glassy carbon electrode at a scan rate of 50 mV s^-1.
Where n is the number of electrons transferred, F, the Faraday constant, A, electrode area, Do, the diffusion coefficient, v, the kinematic viscosity of the solution and C*, the bulk concentration of the reactants. For n = 2, an active electrode area of 0.1925 cm^2, and a kinematic viscosity of the electrolyte of 0.01 cm^2 s^-1, we were able to evalulate the diffusion coefficient from the slope of the straight line plots in FIG. 11D.
To determine the kinetic parameters for the charge-transfer process, namely the rate constant and the apparent transfer coeffcient, the logarithm of the kinetic current (after correction for mass-transport losses) was plotted against the observed overpotentials greater than 100 mV, where the Tafel equation is applicable (Eq. 4 and FIG. 11E).
Where I is the current, Ilim is the limiting current, Iex is the exchange current density, Co and CR are the concentration of the oxidized and reduced species at the surface of the electrode, Co* and CR* are the bulk concentrations of the oxidized and reduced species, α is the transfer coefficient, n is the number of electrons transferred, F is the Faraday constant, E-Erev is the overpotential, R is the gas constant, and T is the temperature. The rate constant, ko , was obtained from the exchange current density (Eq. 5).
Where n is the number of electrons transferred, F, the Faraday constant, A, electrode area, Do, the diffusion coefficient, v, the kinematic viscosity of the solution and C*, the bulk concentration of the reactants. For n = 2, an active electrode area of 0.1925 cm^2, and a kinematic viscosity of the electrolyte of 0.01 cm^2 s^-1, we were able to evalulate the diffusion coefficient from the slope of the straight line plots.
To determine the kinetic parameters for the charge-transfer process, namely the rate constant and the apparent transfer coeffcient, the logarithm of the kinetic current (after correction for mass-transport losses) was plotted against the observed overpotentials greater than 100 mV, where the Tafel equation derived from the Butler-Volmer Equation is applicable : […]
Where I is the current, Ilim is the limiting current, Iex is the exchange current density, Co and CR are the concentration of the oxidized and reduced species at the surface of the electrode, Co* and CR* are the bulk concentrations of the oxidized and reduced species, α is the transfer coefficient, n is the number of electrons transferred, F is the Faraday constant, E-Erev is the overpotential, R is the gas constant, and T is the temperature. The rate constant, ko , was obtained from the exchange current density using the relationship

[2] = cited from earlier work
[3] = Cyclic voltammetry in 1 M potassium hydroxide; format: physicochemical
[4] = Cyclic voltammetry in mixed solvent (DMF/water); format: physicochemical; details: DMF/water (80% DMF/20%Water for TYLENOL)
[5] = in water, 25° C; cited from earlier work
[6] = Table 5, MSE E°=+0.65 V, 1 M sulfuric acid
[7] = Table 7, listed as Anthraquinone sulfonic acid

O=C1C=C(S(=O)(=O)O)C=C(S(=O)(=O)O)C1=O [1,2-benzoquinone-3,5-disulfonic acid, 1,2-benzoquinone-3,5-disulfonic acid]
Standard Reduction Potentials: E°(formal) Measured ([1]; 1 M sulfuric acid): 0.87
kinetic reversibility from cyclic voltammograms ([1]; 1 M sulfuric acid, glassy carbon): rapid oxidation step, but a slower reduction step
Diffusion Coefficient, (cm^2 s^-1) ([1]; Table 5, 1 M sulfuric acid): 3.80E-6 cm^2 s^-1
E½ vs. MSE, Volt [1, 6]: 0.45 Volt
Transfer Coefficient, an ([1]; Table 5): 0.582
Exchange Current Density, (A cm^-2) ([1]; Table 5, 1 M sulfuric acid): 3.00E-6 A cm^-2
Rate Constant, k° ([1]; Table 5): 0.000155 cm/s
Standard Reduction Potentials: Experimental (E½ values) vs. NHE ([1]; 1 M sulfuric acid): 1.1
solubility (Solubility; Solubility, Table 5): 1000 mM (≈ 268 mg/mL)

O=C1C=CC(=O)C=C1 [1,4-benzoquinone (para), 1,4-benzoquinone]
Electrode Potential vs. NHE, V [2]: 0.700 V

O=C1C=C(S(=O)(=O)O)C(=O)c2ccccc21 [1,4-naphthaquinone-2-sulfonic acid]
Electrode Potential vs. NHE, V [2]: 0.534 V

O=C1C=CC(=O)c2ccccc21 [1,4-naphthaquinone]
Electrode Potential vs. NHE, V [2]: 0.483 V

O=C1c2cccc(S(=O)(=O)O)c2C(=O)c2c1cccc2S(=O)(=O)O [1,8 Anthraquinone disulfonic acid]
Diffusion Coefficient (cm2/sec) ([1]; Table 7): 3.39E-6 cm2/sec
Exchange Current density (A/cm^2) ([1]; Table 7): 1.60E-6 A/cm^2
E½ vs. MSE, Volt ([1]; Table 7, 1 M sulfuric acid): -0.70 Volt

O=C1c2cccc(O)c2C(=O)c2c(O)cccc21 [1,8-dihydroxy anthraquinone, 1,8-dihydroxy anthraquinone]
reversible peak potential vs. MMO [3]: approximately -0.60 V

O=C1c2ccccc2C(=O)c2c(O)cccc21 [1-hydroxy-9,10-anthraquinone]
Electrode Potential vs. NHE, V [2]: 0.131 V

O=C1c2ccc(S(=O)(=O)O)cc2C(=O)c2cc(S(=O)(=O)O)ccc21 [2,7 Anthraquinone disulfonic acid]
Diffusion Coefficient (cm2/sec) ([1]; Table 7): 1.82E-6 cm2/sec
Exchange Current density (A/cm^2) ([1]; Table 7): 7.82E-7 A/cm^2
E½ vs. MSE, Volt ([1]; Table 7, 1 M sulfuric acid): -0.57 Volt

O=C1C=C(O)C(=O)c2ccccc21 [2-hydroxy-1,4-naphthaquinone]
Electrode Potential vs. NHE, V [2]: 0.357 V

O=C1C=CC(=O)C(O)=C1 [2-hydroxyl 1,4-benzoquinone]
Electrode Potential vs. NHE, V [2]: 0.596 V

O=C1c2ccccc2C(=O)c2ccccc21 [9,10-anthraquinone, reference compound]
Standard Reduction Potentials: E°(formal) Measured ([1]; 1 M sulfuric acid): Insoluble
Standard Reduction Potentials: Experimental (E½ values) vs. NHE ([1]; 1 M sulfuric acid): Insoluble
Electrode Potential vs. NHE, V [2]: 0.157 V

O=C1c2ccccc2C(=O)c2c1cccc2S(=O)(=O)O [9,10-anthraquinone-1-sulfonic acid]
Electrode Potential vs. NHE, V [2]: 0.183 V

O=C1c2ccccc2C(=O)c2cc(S(=O)(=O)O)ccc21 [Anthraquinone-2-sulfonic acid, anthraquinone-2-sulfonic acid]
Standard Reduction Potentials: E°(formal) Measured ([1]; 1 M sulfuric acid): 0.15
Diffusion Coefficient, (cm^2 s^-1) ([1]; Table 5, 1 M sulfuric acid): 3.71E-6 cm^2 s^-1
E½ vs. MSE, Volt [1, 6]: -0.52 Volt
Transfer Coefficient, an ([1]; Table 5): 0.677
Exchange Current Density, (A cm^-2) ([1]; Table 5, 1 M sulfuric acid): 1.96E-5 A cm^-2
Rate Constant, k° ([1]; Table 5): 0.000225 cm/s
Diffusion Coefficient (cm2/sec) ([1]; Table 7): 3.35E-6 cm2/sec
Exchange Current density (A/cm^2) ([1]; Table 7): 1.95E-5 A/cm^2
E½ vs. MSE, Volt ([1]; Table 7, 1 M sulfuric acid): -0.52 Volt
Diffusion Coefficient (cm2/sec) [1, 7]: 3.18E-6 cm2/sec and 3.35E-6 cm2/sec
Exchange Current density (A/cm^2) [1, 7]: 1.95E-5 A/cm^2 and 2.91E-5 A/cm^2
Standard Reduction Potentials: Experimental (E½ values) vs. NHE ([1]; 1 M sulfuric acid): 0.13
reversibility of the electrochemistry [4]: reversible
solubility (Solubility; DMF/water, aqueous with cosolvent or surfactant or cyclodextrin, solubility in DMF/water): 700 mM (≈ 202 mg/mL)
solubility (Solubility; Solubility, Table 5): 200 mM (≈ 57.7 mg/mL)
solubility (Solubility; Solubility, Table 7): 200 mM (≈ 57.7 mg/mL)
solubility (Solubility; water, aqueous solubility limit, aqueous): 200 mM (≈ 57.7 mg/mL)

O=S(=O)(O)c1cc(O)ccc1O [Hydroquinone sulfonic acid]
Standard Reduction Potentials: E°(formal) Measured ([1]; 1 M sulfuric acid): 0.70
Diffusion Coefficient, (cm^2 s^-1) ([1]; Table 5, 1 M sulfuric acid): 4.28E-6 cm^2 s^-1
E½ vs. MSE, Volt [1, 6]: 0.17 Volt
Transfer Coefficient, an ([1]; Table 5): 0.418
Exchange Current Density, (A cm^-2) ([1]; Table 5, 1 M sulfuric acid): 1.10E-5 A cm^-2
Rate Constant, k° ([1]; Table 5): 0.000552 cm/s
Diffusion Coefficient (cm2/sec) ([1]; Table 7): 4.28E-6 cm2/sec
Exchange Current density (A/cm^2) ([1]; Table 7): 2.59E-5 A/cm^2
Tafel Slope, mV/decade, dη/d(log I) ([1]; Table 7): 63 mV/decade
E½ vs. MSE, Volt ([1]; Table 7, 1 M sulfuric acid): 0.17 Volt
Standard Reduction Potentials: Experimental (E½ values) vs. NHE ([1]; 1 M sulfuric acid): 0.82
solubility (Solubility; Solubility, Table 5): 800 mM (≈ 152 mg/mL)
solubility (Solubility; Solubility, Table 7): 800 mM (≈ 152 mg/mL)

Oc1ccc(O)cc1 [Hydroquinone]
Standard Reduction Potentials: E°(formal) Measured ([1]; 1 M sulfuric acid): 0.68
Diffusion Coefficient, (cm^2 s^-1) ([1]; Table 5, 1 M sulfuric acid): 5.03E-6 cm^2 s^-1
E½ vs. MSE, Volt [1, 6]: 0.02 Volt
Transfer Coefficient, an ([1]; Table 5): 0.508
Exchange Current Density, (A cm^-2) ([1]; Table 5, 1 M sulfuric acid): 5.09E-5 A cm^-2
Rate Constant, k° ([1]; Table 5): 0.00236 cm/s
Diffusion Coefficient (cm2/sec) ([1]; Table 7): 5.03E-6 cm2/sec and 5.4E-6 cm2/sec
Exchange Current density (A/cm^2) ([1]; Table 7): 9.17E-5 A/cm^2
Tafel Slope, mV/decade, dη/d(log I) ([1]; Table 7): 110 mV/decade
E½ vs. MSE, Volt ([1]; Table 7, 1 M sulfuric acid): 0.02 Volt
Standard Reduction Potentials: Experimental (E½ values) vs. NHE ([1]; 1 M sulfuric acid): 0.67
solubility (Solubility; Solubility, Table 5): 530 mM (≈ 58.4 mg/mL)
solubility (Solubility; Solubility, Table 7): 530 mM (≈ 58.4 mg/mL)

O=c1[nH][nH]c(=O)c2ccccc12 [Phthalyl hydrazide]
Diffusion Coefficient (cm2/sec) ([1]; Table 7): 1.07E-6 cm2/sec
Exchange Current density (A/cm^2) ([1]; Table 7): 3.03E-6 A/cm^2
Tafel Slope, mV/decade, dη/d(log I) ([1]; Table 7): 40 mV/decade
E½ vs. MSE, Volt ([1]; Table 7, 1 M sulfuric acid): 0.5 Volt

c1ccc2nccnc2c1 [Quinoxaline]
Diffusion Coefficient (cm2/sec) ([1]; Table 7): 1.36E-6 cm2/sec and 1.09E-6 cm2/sec
solubility (Solubility; Solubility, Table 7): > 7000 mM

CC(=O)Nc1ccc(O)cc1 [TYLENOL®, reference compound]
reversibility of the electrochemistry [4]: DMF does not enhance the reversibility

O=C1C(=O)C(Cl)=C(Cl)C(Cl)=C1Cl [Tetrachloro-1,2-benzoquinone]
Electrode Potential vs. NHE, V [2]: 0.823 V

O=C1C=C(S(=O)(=O)O)C=C(S(=O)(=O)O)C1=O [benzoquinone disulfonic acid]
solubility [5]: 1700 mM (≈ 456 mg/mL)

O=C1C=CC(=O)C=C1 [benzoquinone]
solubility [5]: 100 mM (≈ 10.8 mg/mL)

Hydroquinone disulfonic acid
Diffusion Coefficient (cm2/sec) ([1]; Table 7): 3.80E-6 cm2/sec and 4.04E-6 cm2/sec
Exchange Current density (A/cm^2) ([1]; Table 7): 3.47E-6 A/cm^2
Tafel Slope, mV/decade, dη/d(log I) ([1]; Table 7): 123 mV/decade
E½ vs. MSE, Volt ([1]; Table 7, 1 M sulfuric acid): 0.45 Volt
solubility (Solubility; Table 7): 1000 mM

Maleic hydrazide
Diffusion Coefficient (cm2/sec) ([1]; Table 7): 6.57E-6 cm2/sec
Exchange Current density (A/cm^2) ([1]; Table 7): 5.86E-6 A/cm^2
Tafel Slope, mV/decade, dη/d(log I) ([1]; Table 7): 54 mV/decade
E½ vs. MSE, Volt ([1]; Table 7, 1 M sulfuric acid): 0.6 Volt

anthraquinone-2-sulfonic acid salt
reversible peak potential vs. MMO [3]: about -0.4 V
